# Measurements from ChEMBL document CHEMBL1201862, “PubChem BioAssay data set” (2004).
#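 Tested at 5 concentrations; 48 h exposure; 96-well plates; endpoints linearly interpolated, else capped at highest concentration. Here, GI50 denotes the concentration required for 50% inhibition of growth.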 Activity calls are given as the source filed them. Rule as the data show it: active = GI50 up to about 1.1 µM and inactive = higher.
# Columns and labels:
# Experiment in all cases: NCI anticancer screen, dose series, 48 h
# SK-MEL-2 = test system: SK-MEL-2
# NCI-H522 = test system: NCI-H522
# SW-620 = test system: SW-620
# DU-145 = test system: DU-145
# MOLT-4 = test system: MOLT-4
# K562 = test system: K562
# U-251 = test system: U-251
# UACC-62 = test system: UACC-62
# PC-3 = test system: PC-3
# NCI/ADR-RES = test system: NCI/ADR-RES
# ACHN = test system: ACHN
# KM12 = test system: KM12
# NCI-H23 = test system: NCI-H23
# RPMI-8226 = test system: RPMI-8226
# Malme-3M = test system: Malme-3M
# NCI-H460 = test system: NCI-H460
# HCT-15 = test system: HCT-15
# 786-0 = test system: 786-0
# SK-MEL-28 = test system: SK-MEL-28
# A498 = test system: A498
# UO-31 = test system: UO-31
# UACC-257 = test system: UACC-257
# LOX IMVI = test system: LOX IMVI
# MDA-MB-435 = test system: MDA-MB-435
# RXF 393 = test system: RXF 393
# OVCAR-8 = test system: OVCAR-8
# SF-268 = test system: SF-268
# MDA-MB-231 = test system: MDA-MB-231
# CAKI-1 = test system: CAKI-1
# COLO 205 = test system: COLO 205
# HL-60 = test system: HL-60
# BT-549 = test system: BT-549
# EKVX = test system: EKVX
# SF-295 = test system: SF-295
# SF-539 = test system: SF-539
# T47D = test system: T47D
# CCRF-CEM = test system: CCRF-CEM
# IGROV-1 = test system: IGROV-1
# OVCAR-5 = test system: OVCAR-5
# M14 = test system: M14
# SK-MEL-5 = test system: SK-MEL-5
# MCF7 = test system: MCF7
# SNB-19 = test system: SNB-19
# HCC 2998 = test system: HCC 2998
# HCT-116 = test system: HCT-116
# SK-OV-3 = test system: SK-OV-3
# OVCAR-4 = test system: OVCAR-4
# TK-10 = test system: TK-10
# A549 = test system: A549
# MDA-N = test system: MDA-N
# HT-29 = test system: HT-29
# NCI-H226 = test system: NCI-H226
# SR = test system: SR
# SN12C = test system: SN12C
# OVCAR-3 = test system: OVCAR-3
# HOP-92 = test system: HOP-92
# HOP-62 = test system: HOP-62
# SNB-75 = test system: SNB-75
compound,measurement,setting,value
COc1ccc(-c2nc3cc(F)ccc3s2)cc1O,GI50,SK-MEL-2,27900 nM (inactive)
same,GI50,NCI-H522,16300 nM (inactive)
same,GI50,SW-620,87900 nM (inactive)
same,GI50,DU-145,38000 nM (inactive)
same,GI50,MOLT-4,> 100000 nM (inactive)
same,GI50,K562,73100 nM (inactive)
same,GI50,U-251,30100 nM (inactive)
same,GI50,UACC-62,30700 nM (inactive)
same,GI50,PC-3,34700 nM (inactive)
same,GI50,NCI/ADR-RES,46300 nM (inactive)
same,GI50,ACHN,28700 nM (inactive)
same,GI50,KM12,12200 nM (inactive)
same,GI50,NCI-H23,29300 nM (inactive)
same,GI50,RPMI-8226,17600 nM (inactive)
same,GI50,Malme-3M,35100 nM (inactive)
same,GI50,NCI-H460,21300 nM (inactive)
same,GI50,HCT-15,3050 nM
same,GI50,786-0,18900 nM (inactive)
same,GI50,SK-MEL-28,75700 nM (inactive)
same,GI50,A498,29700 nM (inactive)
same,GI50,UO-31,30800 nM (inactive)
same,GI50,UACC-257,24900 nM (inactive)
same,GI50,LOX IMVI,21100 nM (inactive)
same,GI50,MDA-MB-435,56100 nM (inactive)
same,GI50,RXF 393,36800 nM (inactive)
same,GI50,OVCAR-8,26500 nM (inactive)
same,GI50,SF-268,28000 nM (inactive)
same,GI50,MDA-MB-231,39600 nM (inactive)
same,GI50,CAKI-1,23300 nM (inactive)
same,GI50,COLO 205,28700 nM (inactive)
same,GI50,HL-60,32600 nM (inactive)
same,GI50,BT-549,17200 nM (inactive)
same,GI50,EKVX,6590 nM (inactive)
same,GI50,SF-295,22500 nM (inactive)
same,GI50,SF-539,38500 nM (inactive)
same,GI50,T47D,514 nM (active)
same,GI50,CCRF-CEM,4530 nM (inactive)
same,GI50,IGROV-1,3810 nM (inactive)
same,GI50,OVCAR-5,48600 nM (inactive)
same,GI50,M14,26500 nM (inactive)
same,GI50,SK-MEL-5,22500 nM (inactive)
same,GI50,MCF7,668 nM (active)
same,GI50,SNB-19,61700 nM (inactive)
same,GI50,HCC 2998,2570 nM (inactive)
same,GI50,HCT-116,27400 nM (inactive)
same,GI50,SK-OV-3,29800 nM (inactive)
same,GI50,OVCAR-4,28800 nM (inactive)
same,GI50,TK-10,16200 nM (inactive)
same,GI50,A549,34100 nM (inactive)
same,GI50,MDA-N,57300 nM (inactive)
same,GI50,HT-29,26400 nM (inactive)
same,GI50,NCI-H226,23800 nM (inactive)
same,GI50,SR,19100 nM (inactive)
same,GI50,SN12C,84300 nM (inactive)
same,GI50,OVCAR-3,29700 nM (inactive)
Cc1cccc(/C=N/NC(=S)N2CCCC2)n1,GI50,SK-MEL-2,1010 nM (active)
same,GI50,NCI-H522,45.8 nM (active)
same,GI50,SW-620,188 nM (active)
same,GI50,DU-145,373 nM (active)
same,GI50,MOLT-4,68.7 nM (active)
same,GI50,K562,200 nM (active)
same,GI50,U-251,366 nM (active)
same,GI50,UACC-62,296 nM (active)
same,GI50,PC-3,346 nM (active)
same,GI50,NCI/ADR-RES,166 nM (active)
same,GI50,ACHN,202 nM (active)
same,GI50,NCI-H23,215 nM (active)
same,GI50,HOP-92,1650 nM (inactive)
same,GI50,Malme-3M,28.6 nM (active)
same,GI50,NCI-H460,337 nM (active)
same,GI50,HOP-62,209 nM (active)
same,GI50,HCT-15,138 nM
same,GI50,786-0,199 nM (active)
same,GI50,SK-MEL-28,1020 nM (active)
same,GI50,A498,347 nM (active)
same,GI50,UO-31,297 nM (active)
same,GI50,UACC-257,486 nM (active)
same,GI50,LOX IMVI,267 nM (active)
same,GI50,MDA-MB-435,493 nM (active)
same,GI50,OVCAR-8,324 nM (active)
same,GI50,SF-268,251 nM (active)
same,GI50,MDA-MB-231,133 nM (active)
same,GI50,CAKI-1,197 nM (active)
same,GI50,COLO 205,325 nM (active)
same,GI50,HL-60,55.9 nM (active)
same,GI50,BT-549,1760 nM (inactive)
same,GI50,EKVX,304 nM (active)
same,GI50,SF-295,266 nM (active)
same,GI50,SF-539,479 nM (active)
same,GI50,T47D,< 30.6 nM (active)
same,GI50,CCRF-CEM,< 10 nM (active)
same,GI50,IGROV-1,822 nM (active)
same,GI50,OVCAR-5,132 nM (active)
same,GI50,M14,133 nM (active)
same,GI50,SK-MEL-5,259 nM (active)
same,GI50,MCF7,2910 nM (inactive)
same,GI50,SNB-19,2820 nM (inactive)
same,GI50,HCC 2998,780 nM (active)
same,GI50,HCT-116,69 nM (active)
same,GI50,OVCAR-4,195 nM (active)
same,GI50,TK-10,177 nM (active)
same,GI50,A549,514 nM (active)
same,GI50,MDA-N,417 nM (active)
same,GI50,HT-29,52.8 nM (active)
same,GI50,NCI-H226,2410 nM (inactive)
same,GI50,SNB-75,2950 nM (inactive)
same,GI50,SR,50.9 nM (active)
same,GI50,SN12C,247 nM (active)
same,GI50,OVCAR-3,25.5 nM (active)
